From patent publication US20210238170A1, “5,5-Difluoro- and 5-Fluoro-5-Methyl-C-Glycoside Derivatives Useful As Dual SGLT1 / SGLT2 Modulators” (Janssen Pharmaceutica NV, priority 2018, published 2021)

Legend:
[1] = target: T1, human SGLT1 (Homo sapiens, UniProt P13866); assay: SGLT1 in vitro assay: Na-dependent 14C-AMG uptake in CHO-K1 cells stably expressing human SGLT1; assay type: cell-based; details: CHO-K1 cells stably expressing human SGLT1, 14C-AMG uptake; for inhibition at 0.3 µM: read-out: SGLT1 % Inh @ 0.3 μM; for IC50: compounds of formula (I) where R0 is fluoro
T1 construct: expressed in transfected cells
T1 sequence (P13866 1-664): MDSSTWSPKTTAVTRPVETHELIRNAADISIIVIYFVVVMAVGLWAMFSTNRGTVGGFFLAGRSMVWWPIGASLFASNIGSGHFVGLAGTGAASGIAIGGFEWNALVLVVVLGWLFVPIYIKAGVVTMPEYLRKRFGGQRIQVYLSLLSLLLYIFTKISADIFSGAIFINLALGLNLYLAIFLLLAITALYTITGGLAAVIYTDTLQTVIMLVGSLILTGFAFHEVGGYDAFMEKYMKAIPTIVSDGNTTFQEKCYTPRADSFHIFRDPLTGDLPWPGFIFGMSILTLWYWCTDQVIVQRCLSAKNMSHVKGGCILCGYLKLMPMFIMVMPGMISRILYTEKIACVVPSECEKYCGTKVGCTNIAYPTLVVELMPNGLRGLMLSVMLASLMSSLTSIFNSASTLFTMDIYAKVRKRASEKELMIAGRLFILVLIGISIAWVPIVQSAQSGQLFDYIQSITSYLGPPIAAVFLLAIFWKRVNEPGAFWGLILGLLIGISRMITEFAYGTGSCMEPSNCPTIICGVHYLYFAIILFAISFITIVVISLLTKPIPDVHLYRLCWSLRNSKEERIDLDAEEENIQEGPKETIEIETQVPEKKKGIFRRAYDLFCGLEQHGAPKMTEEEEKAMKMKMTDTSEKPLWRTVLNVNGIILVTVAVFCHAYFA
In short: (§1)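 CHO-K1 cells stably expressing human SGLT1 or SGLT2, induced with 10 mM Na-butyrate for 24 h. Compounds (0.001–10 μM) in Na+-containing HEPES/Tris buffer pH 7.4 were applied for 10 min, then 14C-AMG ([…]) for 2 h at 37°C; Na-dependent uptake read by scintillation; %-inhibition or IC50.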

[2] = target: T2, human SGLT2 (Homo sapiens, UniProt P31639); assay: SGLT2 in vitro assay: Na-dependent 14C-AMG uptake in CHO-K1 cells stably expressing human SGLT2; assay type: cell-based; details: CHO-K1 cells stably expressing human SGLT2, 14C-AMG uptake; for inhibition at 0.3 µM: read-out: SGLT2 % Inh @ 0.3 μM; for IC50: compounds of formula (I) where R0 is fluoro
T2 construct: expressed in transfected cells
T2 sequence (P31639 1-672): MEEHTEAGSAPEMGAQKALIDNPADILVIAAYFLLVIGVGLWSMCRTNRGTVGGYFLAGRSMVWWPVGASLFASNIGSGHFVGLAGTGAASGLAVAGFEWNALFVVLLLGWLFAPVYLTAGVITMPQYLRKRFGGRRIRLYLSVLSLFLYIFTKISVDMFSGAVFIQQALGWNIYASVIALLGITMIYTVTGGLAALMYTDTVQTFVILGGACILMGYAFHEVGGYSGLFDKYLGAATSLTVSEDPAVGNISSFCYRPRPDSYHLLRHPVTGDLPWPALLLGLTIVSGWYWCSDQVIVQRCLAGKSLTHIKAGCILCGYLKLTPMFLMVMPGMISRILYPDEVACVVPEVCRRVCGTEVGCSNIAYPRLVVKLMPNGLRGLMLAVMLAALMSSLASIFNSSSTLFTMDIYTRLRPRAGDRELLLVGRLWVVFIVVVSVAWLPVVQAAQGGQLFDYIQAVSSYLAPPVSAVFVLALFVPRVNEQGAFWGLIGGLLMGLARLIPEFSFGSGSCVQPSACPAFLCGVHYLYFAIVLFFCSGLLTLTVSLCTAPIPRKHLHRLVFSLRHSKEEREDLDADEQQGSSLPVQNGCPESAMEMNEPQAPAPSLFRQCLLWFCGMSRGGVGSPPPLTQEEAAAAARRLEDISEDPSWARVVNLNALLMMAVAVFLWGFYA
In short: as §1

Structure (SMILES)	inhibition at 0.3 µM [1] [%]	IC50 [1] [nM]	inhibition at 0.3 µM [2] [%]	IC50 [2] [nM]	SGLT1 % Inh @ 0.3 μM [1] [%]	SGLT2 % Inh @ 0.3 μM [2] [%]
CCc1ccc(Cc2cc([C@@H]3O[C@H](CO)C(F)(F)[C@H](O)[C@H]3O)c(O)cc2CC)cc1 [Compound 128]	79.5	120	88.7	7.7	–	–
CCc1ccc(Cc2cc([C@@H]3O[C@H](CO)C(F)(F)[C@H](O)[C@H]3O)c(OC)cc2C)cc1 [Compound 129]	–	–	–	–	16.4	87.1
CCc1ccc(Cc2cc([C@@H]3O[C@H](CO)C(F)(F)[C@H](O)[C@H]3O)c(OC)cc2CC)cc1 [Compound 130]	–	–	–	–	22.9	83.7
CCc1ccc(Cc2cc([C@@H]3O[C@H](CO)C(F)(F)[C@H](O)[C@H]3O)c(O)cc2C)cc1 [Compound 131, (2S,3R,4R,6R)-2-(5-(4-ethylbenzyl)-2-hydroxy-4-methylphenyl)-5,5-difluoro-6-(hydroxymethyl)tetrahydro-2H-pyran-3,4-diol]	64.4	96	88.6	2.7	–	–
OC[C@H]1O[C@@H](c2cc(Cc3ccc4c(c3)SCCO4)c(Cl)c3c2OCC3)[C@H](O)[C@@H](O)C1(F)F [Compound 132]	40.7	422	83.9	4.5	–	–
Cc1cc(O)c([C@@H]2O[C@H](CO)C(F)(F)[C@H](O)[C@H]2O)cc1Cc1ccc(OCF)cc1 [Compound 133]	67.7	153	90.6	1.3	–	–
COc1cc(O)c([C@@H]2O[C@H](CO)C(F)(F)[C@H](O)[C@H]2O)cc1Cc1cc2c(s1)CCN(C#N)C2 [Compound 134]	–	–	–	–	31.6	62.3
CCc1ccc(Cc2cc([C@@H]3O[C@H](CO)C(F)(F)[C@H](O)[C@H]3O)c(OC)cc2Cl)cc1 [Compound 135]	–	–	–	–	16.5	88.0
OC[C@H]1O[C@@H](c2cc(Cc3ccc(C4CC4)cc3)c(Cl)cc2O)[C@H](O)[C@@H](O)C1(F)F [Compound 136]	68.7	138	90.9	2.1	–	–
CCc1ccc(Cc2cc([C@@H]3O[C@H](CO)C(F)(F)[C@H](O)[C@H]3O)c(O)cc2C2CC2)cc1 [Compound 137]	–	–	–	–	50.4	52.5
COc1cc(C)c(Cc2ccc(OCF)cc2)cc1[C@@H]1O[C@H](CO)C(F)(F)[C@H](O)[C@H]1O [Compound 138]	40.3	836	76.7	1.9	–	–
COc1cc(O)c([C@@H]2O[C@H](CO)C(F)(F)[C@H](O)[C@H]2O)cc1Cc1ccc(C2CC2)cc1 [Compound 140]	81.1	72	85.5	1.9	–	–
OC[C@H]1O[C@@H](c2cc(Cc3ccc(C4CC4)cc3)c(C3CC3)cc2O)[C@H](O)[C@@H](O)C1(F)F [Compound 141]	78.8	95	82.8	44.9	–	–
COc1cc(O)c([C@@H]2O[C@H](CO)C(F)(F)[C@H](O)[C@H]2O)cc1Cc1ccc(OCF)cc1 [Compound 142]	62.6	234	69.4	3	–	–
OC[C@H]1O[C@@H](c2cc(Cc3ccc(OCF)cc3)c(C3CC3)cc2O)[C@H](O)[C@@H](O)C1(F)F [Compound 143]	–	–	–	–	72.3	62.9
COc1cc(OC)c([C@@H]2O[C@H](CO)C(F)(F)[C@H](O)[C@H]2O)cc1Cc1ccc(C2CC2)cc1 [Compound 144]	–	–	–	–	30.6	75.0
CCc1ccc(Cc2cc([C@@H]3O[C@H](CO)C(F)(F)[C@H](O)[C@H]3O)c(O)cc2OC)cc1 [Compound 145]	78.1	83	64.4	2.8	–	–
OC[C@H]1O[C@@H](c2cc3c(c(Cc4ccc(OCF)cc4)c2)OCC3)[C@H](O)[C@@H](O)C1(F)F [Compound 146]	–	–	–	–	41.9	76.8
COc1cc(OC)c([C@@H]2O[C@H](CO)C(F)(F)[C@H](O)[C@H]2O)cc1Cc1ccc(OCF)cc1 [Compound 147]	–	–	–	–	26.5	64.7
CCc1cc(O)c([C@@H]2O[C@H](CO)C(F)(F)[C@H](O)[C@H]2O)cc1Cc1ccc(OCF)cc1 [Compound 148]	83	53	82.4	1.5	–	–

Further lines, results first:

inhibition at 0.3 µM [1] [%]	IC50 [1] [nM]	inhibition at 0.3 µM [2] [%]	IC50 [2] [nM]	SGLT1 % Inh @ 0.3 μM [1] [%]	SGLT2 % Inh @ 0.3 μM [2] [%]	Structure (SMILES)
84.4	72	72.5	3.1	–	–	CCc1cc(O)c([C@@H]2O[C@H](CO)C(F)(F)[C@H](O)[C@H]2O)cc1Cc1ccc(C2CC2)cc1 [Compound 150]
52.1	644	88	6.2	–	–	CCc1cc(OC)c([C@@H]2O[C@H](CO)C(F)(F)[C@H](O)[C@H]2O)cc1Cc1ccc(C2CC2)cc1 [Compound 151]
–	–	–	–	32.7	84.5	CN(C)c1ccc(Cc2cc([C@@H]3O[C@H](CO)C(F)(F)[C@H](O)[C@H]3O)c(O)cc2C#N)cc1 [Compound 152]
48.7	591	88.1	6.7	–	–	CCc1ccc(Cc2cc([C@@H]3O[C@H](CO)C(F)(F)[C@H](O)[C@H]3O)c(OC)cc2OC)cc1 [Compound 153]
71.8	112	89.7	2.6	–	–	COc1cccc(Cc2cc([C@@H]3O[C@H](CO)C(F)(F)[C@H](O)[C@H]3O)c(O)cc2Cl)c1 [Compound 157]
87.8	35	87.6	2.5	–	–	Cc1ccc(Cc2cc([C@@H]3O[C@H](CO)C(F)(F)[C@H](O)[C@H]3O)c(O)cc2Cl)s1 [Compound 161]
56.5	127	73	1.5	–	–	CCOc1ccc(Cc2cc([C@@H]3O[C@H](CO)C(F)(F)[C@H](O)[C@H]3O)c(O)cc2Cl)cc1 [Compound 162]
73.1	25	64.4	1.2	–	–	OC[C@H]1O[C@@H](c2cc(Cc3ccc(Cl)cc3)c(Cl)cc2O)[C@H](O)[C@@H](O)C1(F)F [Compound 163, (2S,3R,4R,6R)-2-(4-chloro-5-(4-chlorobenzyl)-2-hydroxyphenyl)-5,5-difluoro-6-(hydroxymethyl)-tetrahydro-2H-pyran-3,4-diol]
54.7	40	73.2	0.7	–	–	COc1cc(Cl)c(Cc2ccc(C)s2)cc1[C@@H]1O[C@H](CO)C(F)(F)[C@H](O)[C@H]1O [Compound 165]
–	–	–	–	8.5	74.9	CCc1ccc(Cc2cc([C@@H]3O[C@H](CO)C(F)(F)[C@H](O)[C@H]3O)c(OC)cc2C#N)cc1 [Compound 166]
75.7	20	83.4	0.8	–	–	OC[C@H]1O[C@@H](c2cc(Cc3ccc(Cl)s3)c(Cl)cc2O)[C@H](O)[C@@H](O)C1(F)F [Compound 167]
